Consider 20 compounds from PMC3140938 (Analytical and Bioanalytical Chemistry, 2011).

The structures appear in SMILES notation. “Also recorded” adds a separate entry of the source. Where two headings read alike, the source gives them in different places.

Experiment [1] addresses T1, human glucocorticoid receptor alpha (hGRα) (Homo sapiens, UniProt P04150).
T1 sequence (P04150 1-777): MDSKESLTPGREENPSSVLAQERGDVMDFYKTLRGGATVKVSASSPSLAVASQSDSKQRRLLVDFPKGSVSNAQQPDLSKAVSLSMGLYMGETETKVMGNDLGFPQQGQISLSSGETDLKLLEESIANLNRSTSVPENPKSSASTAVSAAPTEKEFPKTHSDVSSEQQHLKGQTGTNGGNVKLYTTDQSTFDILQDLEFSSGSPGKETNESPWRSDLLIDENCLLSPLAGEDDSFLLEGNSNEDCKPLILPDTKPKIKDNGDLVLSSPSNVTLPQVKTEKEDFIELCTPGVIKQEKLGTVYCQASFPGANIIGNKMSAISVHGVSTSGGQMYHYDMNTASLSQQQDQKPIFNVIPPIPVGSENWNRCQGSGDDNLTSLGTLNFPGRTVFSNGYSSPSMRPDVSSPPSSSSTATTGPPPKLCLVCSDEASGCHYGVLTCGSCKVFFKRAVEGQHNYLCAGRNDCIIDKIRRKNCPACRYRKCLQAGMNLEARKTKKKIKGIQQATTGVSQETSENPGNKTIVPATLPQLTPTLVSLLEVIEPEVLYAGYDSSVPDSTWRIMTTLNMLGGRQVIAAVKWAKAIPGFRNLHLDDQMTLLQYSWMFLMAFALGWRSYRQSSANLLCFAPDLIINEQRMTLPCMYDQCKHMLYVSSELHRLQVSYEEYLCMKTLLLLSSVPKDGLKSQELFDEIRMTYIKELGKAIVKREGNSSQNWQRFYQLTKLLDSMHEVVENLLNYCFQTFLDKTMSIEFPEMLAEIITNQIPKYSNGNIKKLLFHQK
The class given is cell-based. The conditions noted are these: yeast.

In experiment [2] the target is T1, human glucocorticoid receptor alpha (hGRα). Nature of the experiment: cell-based. The class given is cell-based.
For experiment [3], the target named is T2, hGRα (Homo sapiens, UniProt P04150).
T2 sequence (P04150 1-777): T1 sequence (P04150 1-777)
Nature of the experiment: cell-based. Conditions: for RCP (relative corticoid potency): ratio EC50 of dexamethasone / EC50 of compound. It counts as cell-based.

Experiment [4] addresses T2, hGRα. The class given is cell-based. Conditions: GR-CALUX, co-exposure with 1 or 10 nM dexamethasone.
The subject of experiment [5] is PR. The conditions noted are these: yeast-based PR bioassay; cited from earlier work.
The subject of experiment [6] is AR. Conditions: yeast-based AR bioassay; cited from earlier work.
The subject of experiment [7] is AR. Conditions: U2-OS-based CALUX analogue (AR); cited from earlier work.
Where [8] appears, read: co-exposure with budesonide (5 or 50 μM).
The mark [9] stands for this setting: co-exposure with 150 or 500 μM dexamethasone.
Where [10] appears, read: GR-CALUX, agonism, 24 h exposure.

As to `Clc1ccc(Cl)c(-c2cc(Cl)cc(Cl)c2Cl)c1` [PCB92], the “GR antagonism, in words” value in experiment [1] (setting [8]) was “acts as a GR antagonist”. Also, in experiment [2], the “agonistic response (production of yEGFP), in words” value is on record as “slight agonistic effect”.

Take `C[C@]12CCC(=O)C=C1CC[C@@H]1[C@@H]2[C@@H](O)C[C@@]2(C)[C@H]1CC[C@]2(O)C(=O)CO` [Cortisol, cortisol]: the “agonistic response (luciferase activity), in words” value in experiment [3] (compound alone, GR-CALUX) is recorded as “dose-related increase in luciferase activity”. Besides, the “agonistic response (production of yEGFP), in words” value in experiment [2] is listed as “dose-related increase in the production of yEGFP”.

For the compound `C[C@H]1C[C@H]2[C@@H]3CCC4=CC(=O)C=C[C@]4(C)[C@@]3(F)[C@@H](O)C[C@]2(C)[C@@]1(O)C(=O)CO` [Betamethasone, betamethasone], in experiment [3], the “agonistic response (luciferase activity), in words” value is reported as “dose-related increase in luciferase activity”. Also, in experiment [2], the “agonistic response (production of yEGFP), in words” value is “dose-related increase in the production of yEGFP”.

On to `CN(C)c1ccc([C@H]2C[C@@]3(C)[C@@H](CC[C@@]3(O)C#Cc3ccc(S(C)(=O)=O)cc3)[C@@H]3CCC4=CC(=O)CCC4=C32)cc1` [Org 34850], for which the “GR antagonism, in words” value in experiment [4] is “pure GR antagonist”; in experiment [1] (setting [9]) it was “only slightly acted as GR antagonists”.

What is called EC50 is the concentration needed to bring the measured effect to its halfway point. Consider `C[C@]12C[C@H](O)[C@H]3[C@@H](CCC4=CC(=O)CC[C@@]43C)[C@@H]1CC[C@@H]2C(=O)CO` [Corticosterone, corticosterone], for which the EC50 in experiment [3] amounted to 80 nM; in experiment [2] (EC50) it was 71000 nM. Moreover, the “agonistic response (luciferase activity), in words” value in experiment [3] (compound alone, GR-CALUX) is given as “dose-related increase in luciferase activity”. In addition, the “RCP (relative corticoid potency)” value in experiment [3] (GR-CALUX) turned out to be 0.03; in experiment [2], 1.7. Further, the “agonistic response (production of yEGFP), in words” value in experiment [2] is given as “dose-related increase in the production of yEGFP”.

Turning to `Clc1ccc(-c2ccc(Cl)cc2Cl)c(Cl)c1` [PCB47], the “GR antagonism, in words” value in experiment [1] (setting [8]) is given as “only act as GR antagonists”.

`CCCC1O[C@@H]2C[C@H]3[C@@H]4CCC5=CC(=O)C=C[C@]5(C)[C@H]4[C@@H](O)C[C@]3(C)[C@]2(C(=O)CO)O1` (stereo partly drawn) [Budesonide, budesonide]: the “agonistic response (luciferase activity), in words” value in experiment [3] (compound alone, GR-CALUX) is on record as “equally potent”. In experiment [2], the “agonistic response (production of yEGFP), in words” value is given as “dose-related increase in the production of yEGFP; also recorded: much more potent than Dex” and the limit of detection was 0.5 µM.

For `Clc1ccc(-c2c(Cl)cc(Cl)cc2Cl)c(Cl)c1` [PCB100], the “GR antagonism, in words” value in experiment [1] (setting [8]) is recorded as “only act as GR antagonists”.

As to `C[C@]12CCC(=O)C=C1CC[C@@H]1[C@@H]2C(=O)C[C@@]2(C)[C@H]1CC[C@]2(O)C(=O)CO` [Cortisone, cortisone], the EC50 entry in experiment [3] (setting [10]) is listed as “Not active”. The “agonistic response (luciferase activity), in words” value in experiment [3] (compound alone, GR-CALUX) is “no response”. In addition, the “RCP (relative corticoid potency)” value in experiment [3] (GR-CALUX) is on record as 0. For the same compound, in experiment [2], the concentration for a half-maximal effect (EC50) entry is reported as “Not active”; the “RCP (relative corticoid potency)” value was 0.0; the “agonistic response (production of yEGFP), in words” value was “no response”.

With `C[C@]12C=CC(=O)C=C1CC[C@@H]1[C@@H]2[C@@H](O)C[C@@]2(C)[C@H]1CC[C@]2(O)C(=O)CO` [Prednisolone, prednisolone], in experiment [3], the “agonistic response (luciferase activity), in words” value is on record as “dose-related increase in luciferase activity”. In experiment [2], the “agonistic response (production of yEGFP), in words” value is reported as “dose-related increase in the production of yEGFP”.

Consider `CC(=O)OCC(=O)[C@@]1(O)CC[C@H]2[C@@H]3CCC4=CC(=O)CC[C@]4(C)[C@@]3(F)[C@@H](O)C[C@@]21C` [Fludrocortisone-21-acetate, fludrocortisone-21-acetate], for which the “agonistic response (luciferase activity), in words” value in experiment [3] (compound alone, GR-CALUX) was “active”. Moreover, the EC50 result in experiment [2] is listed as “Not active”.

For `C[C@]12CCC(=O)C=C1CC[C@@H]1[C@@H]2[C@@H](O)C[C@]2(C=O)[C@@H](C(=O)CO)CC[C@@H]12` [Aldosterone], the values for the EC50 in experiment [3] and in experiment [2] (EC50) were 495 nM and 705000 nM, respectively. In experiment [3] (compound alone, GR-CALUX), the “agonistic response (luciferase activity), in words” value is reported as “dose-related increase in luciferase activity”. Besides, the “RCP (relative corticoid potency)” value in experiment [3] (GR-CALUX) is 0.004; in experiment [2], 0.2. Further, the “agonistic response (production of yEGFP), in words” value in experiment [2] was “dose-related increase in the production of yEGFP”.

Regarding `C[C@@H]1C[C@H]2[C@@H]3CCC4=CC(=O)C=C[C@]4(C)[C@@]3(F)[C@@H](O)C[C@]2(C)[C@@]1(O)C(=O)CO` [Dexamethasone, dexamethasone], the “agonistic response (luciferase activity), in words” value in experiment [3] is reported as “dose-related increase in luciferase activity”. In addition, the “agonistic response (production of yEGFP), in words” value in experiment [2] was “dose-related increase in the production of yEGFP”.

Regarding `CC#C[C@]1(O)CC[C@H]2[C@@H]3CCC4=CC(=O)CCC4=C3[C@@H](c3ccc(N(C)C)cc3)C[C@@]21C` [Mifepristone, mifepristone], the 50% effective concentration (EC50) entry in experiment [3] is on record as “Not active^b”. The results for the “GR antagonism, in words” value in experiment [4] and in experiment [1] (setting [9]) were “pure GR antagonists” and “only slightly acted as GR antagonists”, respectively.

Consider `C[C@]12CC[C@@H]3c4ccc(O)cc4CC[C@H]3[C@@H]1CC[C@@H]2O` [17β-Estradiol (E2), 17β-estradiol], for which the EC50 result in experiment [3] (setting [10]) and in experiment [2] was “Not active” throughout. In addition, the “RCP (relative corticoid potency)” value in experiment [3] (GR-CALUX) came to 0; in experiment [2] it was 0.0. In addition, the “agonistic response (production of yEGFP), in words” value in experiment [2] is “no agonistic response”.

As for `Clc1ccc(Cl)c(-c2cc(Cl)c(Cl)cc2Cl)c1` [PCB101], the “inhibition of the response caused by 5 μM budesonide, in words” value in experiment [1] (co-exposure with 5 μM budesonide) is given as “almost fully inhibiting”. In addition, in experiment [1] (co-exposure with 50 μM budesonide), the “inhibition of the response caused by 50 μM budesonide” value was found to be 50%. Besides, in experiment [1] (setting [8]), the “GR antagonism, in words” value was “strongest GR antagonist”. Besides, in experiment [2], the “agonistic response (production of yEGFP), in words” value is “agonistic effect that is almost comparable with that of triamcinolone and progesterone”.

As to `CC(=O)[C@H]1CC[C@H]2[C@@H]3CCC4=CC(=O)CC[C@]4(C)[C@H]3CC[C@]12C` [Progesterone (P4), progesterone], the EC50 in experiment [5] is […].

As to `C[C@]12C=CC(=O)C=C1CC[C@H]1[C@@H]3C[C@@H](O)[C@](O)(C(=O)CO)[C@@]3(C)C[C@H](O)[C@@]12F` [Triamcinolone, triamcinolone], the half-maximal effective concentration (EC50) in experiment [3] is 19 nM; in experiment [2] it was “Active^a”. For the same compound, the “RCP (relative corticoid potency)” value in experiment [3] (GR-CALUX) is 0.1; in experiment [2] it was “Active”.

As to `C[C@]12CC[C@H]3[C@@H](CCC4=CC(=O)CC[C@@]43C)[C@@H]1CC[C@@H]2O` [T, 17β-testosterone], the values for the half-maximal effective concentration (EC50) in experiment [6] and in experiment [7] were […] and […], respectively.

With `C[C@]12CCC(=O)C[C@@H]1CC[C@@H]1[C@@H]2CC[C@]2(C)[C@@H](O)CC[C@@H]12` [5α-Dihydrotestosterone, 5α-dihydrotestosterone], in experiment [3], the half-maximal effective concentration (EC50) entry was “Not active”.
